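GI50 = concentration required for 50% inhibition of growth. Definition used: TGI = concentration required for complete inhibition of growth.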
Columns and labels:
Test in all cases: NCI tumour cell line growth inhibition, 384-well format
MDA-MB-468 breast = test system: MDA-MB-468 breast
UACC-257 melanoma = test system: UACC-257 melanoma
NCI-H522 lung = test system: NCI-H522 lung
HOP-92 NSCLC = test system: HOP-92 NSCLC
OVCAR-4 ovarian = test system: OVCAR-4 ovarian
NCI-H322M lung = test system: NCI-H322M lung
NCI-H23 lung = test system: NCI-H23 lung
HT29 colon = test system: HT29 colon
KM12 colon = test system: KM12 colon
SNB-19 CNS = test system: SNB-19 CNS
SK-MEL-5 melanoma = test system: SK-MEL-5 melanoma
ACHN renal = test system: ACHN renal
TK-10 renal = test system: TK-10 renal
SF-295 CNS = test system: SF-295 CNS
OVCAR-5 ovarian = test system: OVCAR-5 ovarian
MCF7 breast = test system: MCF7 breast
SK-MEL-28 melanoma = test system: SK-MEL-28 melanoma
HOP-62 NSCLC = test system: HOP-62 NSCLC
LOX IMVI melanoma = test system: LOX IMVI melanoma
NCI-H226 lung = test system: NCI-H226 lung
OVCAR-3 ovarian = test system: OVCAR-3 ovarian
HCT-15 colon = test system: HCT-15 colon
BT-549 breast = test system: BT-549 breast
IGROV1 ovarian = test system: IGROV1 ovarian
HL-60(TB) leukemia = test system: HL-60(TB) leukemia
U251 glioblastoma = test system: U251 glioblastoma
SR leukemia = test system: SR leukemia
DU-145 prostate = test system: DU-145 prostate
COLO 205 colon = test system: COLO 205 colon
MALME-3M melanoma = test system: MALME-3M melanoma
CAKI-1 renal = test system: CAKI-1 renal
A498 renal = test system: A498 renal
MOLT-4 leukemia = test system: MOLT-4 leukemia
T-47D breast = test system: T-47D breast
M14 melanoma = test system: M14 melanoma
HS 578T breast = test system: HS 578T breast
MDA-MB-231 breast = test system: MDA-MB-231 breast
HCT-116 colon = test system: HCT-116 colon
PC-3 prostate = test system: PC-3 prostate
SK-OV-3 ovarian = test system: SK-OV-3 ovarian
OVCAR-8 ovarian = test system: OVCAR-8 ovarian
SNB-75 CNS = test system: SNB-75 CNS
SF-539 CNS = test system: SF-539 CNS
HCC-2998 colon = test system: HCC-2998 colon
NCI-H460 NSCLC = test system: NCI-H460 NSCLC
UACC-62 melanoma = test system: UACC-62 melanoma
RXF 393 renal = test system: RXF 393 renal
A549 NSCLC = test system: A549 NSCLC
NCI/ADR-RES ovarian = test system: NCI/ADR-RES ovarian
SN12C renal = test system: SN12C renal
MDA-MB-435 melanoma = test system: MDA-MB-435 melanoma
RPMI-8226 leukemia = test system: RPMI-8226 leukemia
EKVX NSCLC = test system: EKVX NSCLC
SF-268 CNS = test system: SF-268 CNS

## COC(=O)c1ccc2c(c1)nc(NC(=O)c1ccccc1)n2CCCc1ccccc1
MDA-MB-468 breast
  GI50: 2.19 µM
  TGI: > 100 µM
UACC-257 melanoma
  GI50: 2.32 µM
  TGI: 9.95 µM
NCI-H522 lung
  GI50: 1.49 µM
  TGI: 9.61 µM
HOP-92 NSCLC
  GI50: 3.93 µM
  TGI: > 100 µM
OVCAR-4 ovarian
  GI50: 11.5 µM
  TGI: 65.9 µM
NCI-H322M lung
  GI50: 0.884 µM
  TGI: 8.59 µM
NCI-H23 lung
  GI50: 1.86 µM
  TGI: > 100 µM
HT29 colon
  GI50: 2.72 µM
  TGI: > 100 µM
KM12 colon
  GI50: 2.33 µM
  TGI: > 100 µM
SNB-19 CNS
  GI50: 2.21 µM
  TGI: 20 µM
SK-MEL-5 melanoma
  GI50: 0.395 µM
  TGI: 1.67 µM
ACHN renal
  GI50: 3.99 µM
  TGI: 31.7 µM
TK-10 renal
  GI50: 2.63 µM
  TGI: 34.5 µM
SF-295 CNS
  GI50: 3.11 µM
  TGI: > 100 µM
OVCAR-5 ovarian
  GI50: 3.94 µM
  TGI: 31.6 µM
MCF7 breast
  GI50: 1.65 µM
  TGI: > 100 µM
SK-MEL-28 melanoma
  GI50: 3.12 µM
  TGI: > 100 µM
HOP-62 NSCLC
  GI50: 0.469 µM
  TGI: 3.55 µM
LOX IMVI melanoma
  GI50: 0.946 µM
  TGI: 2.81 µM
NCI-H226 lung
  GI50: 3.41 µM
  TGI: 48.9 µM
OVCAR-3 ovarian
  GI50: 1.84 µM
  TGI: 69.4 µM
HCT-15 colon
  GI50: 0.478 µM
  TGI: 4 µM
BT-549 breast
  GI50: 0.741 µM
  TGI: 6.46 µM
IGROV1 ovarian
  GI50: 2.04 µM
  TGI: > 100 µM
HL-60(TB) leukemia
  GI50: 0.413 µM
  TGI: 1.75 µM
U251 glioblastoma
  GI50: 0.673 µM
  TGI: 11.3 µM
SR leukemia
  GI50: 0.203 µM
  TGI: 0.44 µM
DU-145 prostate
  GI50: 1.77 µM
  TGI: 24.4 µM
COLO 205 colon
  GI50: 2.04 µM
  TGI: 5.78 µM
MALME-3M melanoma
  GI50: 2.9 µM
  TGI: > 100 µM
CAKI-1 renal
  GI50: 6.36 µM
  TGI: > 100 µM
A498 renal
  GI50: 2.08 µM
  TGI: 15.9 µM
MOLT-4 leukemia
  GI50: 0.222 µM
  TGI: 0.413 µM
T-47D breast
  GI50: 4.13 µM
  TGI: > 100 µM
M14 melanoma
  GI50: 0.519 µM
  TGI: 3.05 µM
HS 578T breast
  GI50: 6.95 µM
  TGI: > 100 µM
MDA-MB-231 breast
  GI50: 7.06 µM
  TGI: > 100 µM
HCT-116 colon
  GI50: 0.852 µM
  TGI: > 100 µM
PC-3 prostate
  GI50: 4.95 µM
  TGI: > 100 µM
SK-OV-3 ovarian
  GI50: 0.973 µM
  TGI: > 100 µM
OVCAR-8 ovarian
  GI50: 1.58 µM
  TGI: 5.25 µM
SNB-75 CNS
  GI50: 3.91 µM
  TGI: 66.8 µM
SF-539 CNS
  GI50: 2.13 µM
  TGI: 18 µM
HCC-2998 colon
  GI50: 1.85 µM
  TGI: > 100 µM
NCI-H460 NSCLC
  GI50: 0.342 µM
  TGI: 1.14 µM
UACC-62 melanoma
  GI50: 2.45 µM
  TGI: > 100 µM
RXF 393 renal
  GI50: 3.11 µM
  TGI: > 100 µM
A549 NSCLC
  GI50: 3.61 µM
  TGI: > 100 µM
NCI/ADR-RES ovarian
  GI50: 0.458 µM
  TGI: 2.16 µM
SN12C renal
  GI50: 2.38 µM
  TGI: 8.75 µM
MDA-MB-435 melanoma
  GI50: 4.03 µM
  TGI: > 100 µM
RPMI-8226 leukemia
  GI50: 1.5 µM
  TGI: 4.6 µM
EKVX NSCLC
  GI50: 1.46 µM
  TGI: > 100 µM
SF-268 CNS
  GI50: 1.81 µM
  TGI: > 100 µM

Reference: PubChem BioAssay (NCI)
